According to PMC7761903, “Aldehyde Dehydrogenases and Prostate Cancer: Shedding Light on Isoform Distribution to Reveal Druggable Target” (Biomedicines, 2020):
Entries after “also recorded” stand apart in the source; their conditions may differ.

Assays:
Assay type in all cases: cell-based, human
[1] = tested on: P4E6 cell line; experiment: Alamar Blue cell viability, P4E6; conditions: for EC50: 72 h exposure, Alamar Blue
Text: (§1) Five different prostate cell lines, including normal cell line PNT2-C2 (Merck), benign prostatic hyperplasia cell line BPH1 (gift from Simon W. Hayward, Evanston, IL, USA), and cancer cell lines including PC-3 (derived from prostate cancer bone metastasis) (ATCC), LNCaP (derived from prostate cancer lymph node metastasis) (ATCC), and P4E6 (derived from localized prostate cancer) (derived in York and available from European Collection of Authenticated Cell Cultures ECACC), as well as two primary malignant cell lines, H796/19 and H798/19 (both Gleason 7 grade cancers) (obtained in York with ethical permission, REC ref 07/H1304/121) were used in the study. Culturing of commercially available cell lines and processing and culturing of primary cells were carried out as previously described. Primary cells were typically used at a passage <5 since they have finite growth and the intention is to maintain them as close to the original tumor as possible.
(§2) AlamarBlue quantitatively measures cell viability since actively metabolizing cells can reduce its active ingredient resazurin to a fluorescent molecule (resorufin) which can be subsequently analyzed on a plate reader. Cells were plated in 96 well plates at a density of 5000 cells/well and left to adhere overnight in 200 μL media. The following day cells were treated with 9 different concentrations of the test drugs in triplicate, ranging from 10^−5 M to 10^−13 M. After 72 h exposure 20 μL of AlamarBlue reagent (diluted 1:10 in the corresponding media for each cell line) was added to each well and incubated at 37 °C for 2 h. Fluorescence intensity was determined using a microplate reader (Polarstar Optima, BMG Labtech) at excitation/emission values 73 of 544/590 nm. EC50 values were calculated using the software GraphPad Prism Version 6 (San Diego, CA, USA).

[2] = tested on: BPH1 benign prostatic hyperplasia cell line; experiment: Alamar Blue cell viability, BPH1
Text: as §1, §2

[3] = tested on: PNT2-C2 normal prostate epithelial cell line; experiment: Alamar Blue cell viability, PNT2-C2; conditions: 72 h exposure
Text: as §1, §2

[4] = tested on: LNCaP cell line; experiment: Alamar Blue cell viability, LNCaP; conditions: 72 h exposure
Text: as §1, §2

[5] = tested on: PC3 cell line; experiment: Alamar Blue cell viability, PC3; conditions: for EC50: 72 h exposure, Alamar Blue
Text: as §1, §2

[6] = tested on: PC3 cell line; experiment: Colony-forming assay, PC3; conditions: 72 h exposure at EC50, EC50×2, EC50×5
Protocol: PNT2-C2, BPH1 and PC3 cell lines were plated in 12-well plates with a density of 4 × 10^4 cells/well and left to adhere overnight in 1.00 mL media. The following day cells were treated with 3 different concentrations of the test drugs, based on the EC50 values in cell viability (EC50, EC50×2, EC50×5). After 72 h of exposure, cells were counted and plated into 12 well plates in triplicate with a density of 100 cells/well. At day 8, cells were stained with crystal violet (1% (w/v) crystal violet, 10% (v/v) ethanol in PBS). Colonies consisting of >32 cells were counted (representative of 5 population doublings).

[7] = tested on: ALDH1A3 gene expression in primary prostate epithelial cell cultures; experiment: qPCR ALDH1A3 gene expression after atRA treatment; conditions: atRA 100 nM, 72 hours; 1xBPH, 1xBPH-PIN, 2x PCa primary cultures; no statistical test
Protocol: (§3) RNA extraction was carried out using the RNeasy Mini Kit (Qiagen, Hilden, Germany). The concentration and quality of the eluted RNA were determined using a NanodropTM2000 (Thermo Fisher Scientific, Waltham, MA, USA) spectrophotometer and measuring the 260/280 ratio. Total RNA of 50–2000 ng was reverse transcribed into single-stranded cDNA using the High Capacity cDNA Reverse Transcription Kit (Thermo Fisher Scientific, Waltham, MA, USA). Once the reaction finished, samples were purified using the QIAquick PCR Purification Kit (Qiagen). The concentration and quality of the cDNA was measured by using the NanodropTM2000 spectrophotometer. qPCR was carried out in 25 μL total PCR reaction using the TaqMan Universal PCR Master Mix (Applied Biosystems, Thermo Fisher Scientific, Waltham, MA, USA). The PCR reaction consisted of 12.5 μL of 2× master mix, 1.25 μL of 20× TaqMan Gene Expression Assay Mix (Supplementary Table S1), and 11.25 μL cDNA diluted in dH2O. A 96-well MicroAmp Optical plate (Applied Biosystems) was used and all reactions were run in triplicates. Primers used were obtained from TaqMan Gene Expression Assays (Thermo Fisher Scientific, Waltham, MA, USA). […] The gene expression level relative to internal control RPLP0 was calculated using the formula 2^−∆CT and the fold change in gene expression was worked out using the 2^−∆∆CT method. […]

[8] = tested on: ALDH1A1 gene expression in primary prostate epithelial cell cultures; experiment: qPCR ALDH1A1 gene expression after atRA treatment; conditions: atRA 100 nM, 72 hours; 1xBPH, 1xBPH-PIN, 2x PCa primary cultures; no statistical test
Protocol: as §3

Row | SMILES | EC50 [1] | EC50 ([2]; 72 h exposure) | EC50 [3] | EC50 [4] | EC50 [5] | further results
1 | c1ccc(-c2ccc3nc(-c4ccccc4)cn3c2)cc1 [Compound 3a] | 60.7 nM | 113 nM | 423 nM | 315 nM | 239 nM | 
2 | Fc1ccc(-c2ccc3nc(-c4ccccc4)cn3c2)cc1 [Compound 3b, 6-(4-fluorophenyl)-2-phenylimidazo [1,2-a]pyridine] |  |  |  |  |  | EC50 ([1]; Homo sapiens): 4.04 nM; antiproliferative activity against P4E6 ([1]; result in words): antiproliferative activity in the nanomolar range; also recorded: nanomolar efficacy; EC50 ([2]; Homo sapiens, BPH-1, 72 h exposure): 41.5 nM; EC50 ([3]; Homo sapiens, Epithelial cell): 217 nM; colony-forming efficiency PC3 [6]: inhibitory efficacy against PC3 colony-forming efficiency; EC50 ([4]; Homo sapiens, LNCaP): 240 nM; EC50 ([5]; Homo sapiens, PC-3): 70.9 nM; antiproliferative activity against PC3 ([5]; result in words): antiproliferative activity in the nanomolar range; also recorded: nanomolar efficacy
3 | Clc1ccc(-c2ccc3nc(-c4ccccc4)cn3c2)cc1 [Compound 3c] | 33.4 nM | 416 nM | 325 nM | 323 nM | 322 nM | 
4 | N#Cc1cccc(-c2ccc3nc(-c4ccccc4)cn3c2)c1 [Compound 3d] | 440 nM | 351 nM | 1720 nM | 7180 nM |  | selectivity of PC3 colony forming inhibition versus PNT2-C2 or BPH-1 [6]: selectively inhibited PC3 colony forming more strongly than PNT2-C2 or BPH-1; also recorded: selective inhibition of PC3 colony formation
5 | CC1=C(/C=C/C(C)=C/C=C/C(C)=C/C(=O)O)C(C)(C)CCC1 [atRA] |  |  |  |  |  | gene expression for ALDH1A3 [7]: increase; gene expression for ALDH1A1 [8]: no apparent effect
